Experimental data published in patent US20100267561A1, “HERBICIDAL PYRIDAZINONE DERIVATIVES” (priority 2007, published 2010).

Tests used:
Format in all cases: in vivo
[1] = test system: wheat (Triticum aestivum); experiment: Test A pre-/postemergence plant response
Summary of the method: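 Ratings are visual, 0–100, where 100 means complete control and 0 no effect, taken roughly 10 days after treatment by comparison with untreated controls. Formulation: non-phytotoxic solvent mixture with surfactant.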

[2] = test system: goosegrass (Eleusine indica); experiment: Test B pre-/postemergence plant response
Summary of the method: (§1)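 Preemergence and postemergence (plants 2-18 cm, 1- to 4-leaf stage) applications used test chemicals in a non-phytotoxic solvent with surfactant. Plants were held in a greenhouse 13 to 15 days, then rated visually against controls on a 0-100 scale (0 no effect, 100 complete control).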

[3] = test system: pigweed (Amaranthus retroflexus); experiment: Test B pre-/postemergence plant response
Summary of the method: as §1

[4] = test system: cocklebur (Xanthium strumarium); experiment: Test B pre-/postemergence plant response; settings: for Cocklebur plant response rating: 8 g ai/ha
Summary of the method: as §1

[5] = test system: yellow nutsedge (Cyperus esculentus); experiment: Test B pre-/postemergence plant response
Summary of the method: as §1

[6] = test system: common ragweed (Ambrosia elation); experiment: Test B pre-/postemergence plant response
Summary of the method: as §1

[7] = test system: Italian ryegrass (Lolium multiflorum); experiment: Test B pre-/postemergence plant response
Summary of the method: as §1

[8] = test system: soybean (Glycine max); experiment: Test B pre-/postemergence plant response
Summary of the method: as §1

[9] = test system: Russian thistle (Salsola iberica); experiment: Test B pre-/postemergence plant response; settings: Preemergence
Summary of the method: as §1

[10] = test system: woolly cupgrass (Eriochloa villosa); experiment: Test B pre-/postemergence plant response
Summary of the method: as §1

[11] = test system: eastern black (E.B.) nightshade (Solanum ptycanthum); experiment: Test B pre-/postemergence plant response; settings: Preemergence
Summary of the method: as §1

[12] = test system: kochia (Kochia scoparia); experiment: Test B pre-/postemergence plant response
Summary of the method: as §1

[13] = Postemergence, 31 g ai/ha, 0 to 100 scale (0 no effect, 100 complete control)
[14] = Postemergence, 125 g ai/ha, 0 to 100 scale, 0 no effect, 100 complete control
[15] = Preemergence, 31 g ai/ha, 0 to 100 scale, 0 is no effect, 100 is complete control
[16] = Preemergence, 125 g ai/ha, 0 to 100 scale (0 no effect, 100 complete control)
[17] = 8 g ai/ha, postemergence, 0-100 scale
[18] = Postemergence, 16 g ai/ha, scale 0 to 100
[19] = Postemergence, 31 g ai/ha, scale 0 to 100
[20] = Postemergence, 62 g ai/ha, scale 0 to 100, 0 no effect, 100 complete control
[21] = Preemergence, 31 g ai/ha, scale 0 to 100 (0 no effect, 100 complete control)
[22] = Preemergence, 62 g ai/ha, 0 to 100 scale, 0 no effect, 100 complete control
[23] = Preemergence, 8 g ai/ha, scale 0 to 100
[24] = Preemergence, 16 g ai/ha, scale 0 to 100
[25] = Preemergence, 16 g ai/ha, scale 0 to 100 (0 no effect, 100 complete control)
[26] = 31 g ai/ha, scale 0 to 100 (0 no effect, 100 complete control)
[27] = 62 g ai/ha, 0 to 100 scale, 0 no effect, 100 complete control
[28] = Preemergence, 31 g ai/ha, 0 to 100 scale, 0 no effect, 100 complete control
[29] = Preemergence, 62 g ai/ha, scale 0 to 100
[30] = 16 g ai/ha, scale 0 to 100 (0 no effect, 100 complete control)

Cc1cc(-c2ccc(Cl)cc2)nn1-c1c(OC(=O)OCC(C)C)cnn(C)c1=O [Compound 57]
Plant response rating, Wheat [1, 13]: 0 | Plant response rating, Wheat [1, 14]: 50 | Plant response rating, Wheat [1, 15]: 0 | Plant response rating, Wheat [1, 16]: 70 | Goosegrass plant response rating [2, 17]: 65 | Plant response rating, Goosegrass [2, 18]: 80 | Plant response rating, Goosegrass [2, 19]: 85 | Plant response rating, Goosegrass [2, 20]: 90 | Plant response rating, Goosegrass [2, 21]: 98 | Plant response rating, Goosegrass [2, 22]: 100 | Goosegrass plant response rating [2, 23]: 0 | Goosegrass plant response rating [2, 24]: 0 | Pigweed plant response rating [3, 17]: 0 | Plant response rating, Pigweed [3, 18]: 0 | Plant response rating, Pigweed [3, 19]: 0 | Plant response rating, Pigweed [3, 20]: 0 | Plant response rating, Pigweed [3, 21]: 0 | Plant response rating, Pigweed [3, 22]: 0 | Pigweed plant response rating [3, 23]: 0 | Pigweed plant response rating [3, 24]: 0 | Cocklebur plant response rating ([4]; postemergence, 0-100 scale): 0 | Plant response rating, Cocklebur [4, 18]: 0 | Plant response rating, Cocklebur [4, 19]: 0 | Plant response rating, Cocklebur [4, 20]: 0 | Plant response rating, Cocklebur [4, 25]: 0 | Plant response rating, Cocklebur [4, 21]: 0 | Plant response rating, Cocklebur [4, 22]: 0 | Cocklebur plant response rating ([4]; Preemergence, scale 0 to 100): 0 | Nutsedge, Yellow plant response rating [5, 17]: 0 | Plant response rating, Nutsedge, Yellow [5, 18]: 0 | Plant response rating, Nutsedge, Yellow [5, 19]: 0 | Plant response rating, Nutsedge, Yellow [5, 20]: 0 | Plant response rating, Nutsedge, Yellow [5, 21]: 0 | Plant response rating, Nutsedge, Yellow [5, 22]: 0 | Nutsedge, Yellow plant response rating [5, 23]: 0 | Nutsedge, Yellow plant response rating [5, 24]: 0 | Ragweed plant response rating [6, 17]: 0 | Plant response rating, Ragweed [6, 18]: 0 | Plant response rating, Ragweed [6, 19]: 0 | Plant response rating, Ragweed [6, 20]: 0 | Plant response rating, Ragweed [6, 21]: 0 | Plant response rating, Ragweed [6, 22]: 0 | Ragweed plant response rating [6, 23]: 0 | Ragweed plant response rating [6, 24]: 0 | Ryegrass, Italian plant response rating [7, 17]: 80 | Plant response rating, Ryegrass, Italian [7, 18]: 95 | Plant response rating, Ryegrass, Italian [7, 19]: 95 | Plant response rating, Ryegrass, Italian [7, 20]: 95 | Plant response rating, Ryegrass, Italian [7, 21]: 95 | Plant response rating, Ryegrass, Italian [7, 22]: 100 | Ryegrass, Italian plant response rating [7, 23]: 0 | Ryegrass, Italian plant response rating [7, 24]: 70 | Soybean plant response rating [8, 17]: 0 | Plant response rating, Soybean [8, 18]: 0 | Plant response rating, Soybean [8, 19]: 0 | Plant response rating, Soybean [8, 20]: 0 | Plant response rating, Soybean [8, 21]: 0 | Plant response rating, Soybean [8, 22]: 0 | Soybean plant response rating [8, 23]: 0 | Soybean plant response rating [8, 24]: 0 | Plant response rating, Russian Thistle [9, 26]: 0 | Plant response rating, Russian Thistle [9, 27]: 0 | Russian Thistle plant response rating ([9]; 8 g ai/ha, scale 0 to 100): 0 | Russian Thistle plant response rating ([9]; 16 g ai/ha, scale 0 to 100): 0 | Cupgrass, Woolly plant response rating [10, 17]: 65 | Plant response rating, Cupgrass, Woolly [10, 18]: 90 | Plant response rating, Cupgrass, Woolly [10, 19]: 100 | Plant response rating, Cupgrass, Woolly [10, 20]: 100 | Plant response rating, Cupgrass, Woolly [10, 21]: 85 | Plant response rating, Cupgrass, Woolly [10, 22]: 100 | Cupgrass, Woolly plant response rating [10, 23]: 0 | Cupgrass, Woolly plant response rating [10, 24]: 20 | Plant response rating, Nightshade, E. B. [11, 26]: 0 | Plant response rating, Nightshade, E. B. [11, 27]: 0 | Nightshade, E. B. plant response rating ([11]; 8 g ai/ha, scale 0 to 100): 0 | Nightshade, E. B. plant response rating ([11]; 16 g ai/ha, scale 0 to 100): 0 | Kochia plant response rating [12, 17]: 0 | Plant response rating, Kochia [12, 18]: 0 | Plant response rating, Kochia [12, 19]: 0 | Plant response rating, Kochia [12, 20]: 0 | Plant response rating, Kochia [12, 21]: 0 | Plant response rating, Kochia [12, 22]: 0 | Kochia plant response rating [12, 23]: 0 | Kochia plant response rating [12, 24]: 0

Cc1cc(-c2ccc(Cl)cc2)nn1-c1c(OC(=O)c2ccccc2)cnn(C)c1=O [Compound 48]
Plant response rating, Wheat [1, 13]: 0 | Plant response rating, Wheat [1, 14]: 60 | Plant response rating, Wheat [1, 15]: 30 | Plant response rating, Wheat [1, 16]: 80 | Goosegrass plant response rating [2, 17]: 15 | Plant response rating, Goosegrass [2, 18]: 65 | Plant response rating, Goosegrass [2, 19]: 75 | Plant response rating, Goosegrass [2, 20]: 95 | Plant response rating, Goosegrass [2, 25]: 0 | Plant response rating, Goosegrass [2, 28]: 0 | Plant response rating, Goosegrass [2, 29]: 20 | Goosegrass plant response rating [2, 23]: 0 | Pigweed plant response rating [3, 17]: 0 | Plant response rating, Pigweed [3, 18]: 0 | Plant response rating, Pigweed [3, 19]: 0 | Plant response rating, Pigweed [3, 20]: 0 | Plant response rating, Pigweed [3, 25]: 0 | Plant response rating, Pigweed [3, 21]: 0 | Plant response rating, Pigweed [3, 29]: 0 | Pigweed plant response rating [3, 23]: 0 | Cocklebur plant response rating ([4]; postemergence, 0-100 scale): 0 | Plant response rating, Cocklebur [4, 18]: 0 | Plant response rating, Cocklebur [4, 19]: 0 | Plant response rating, Cocklebur [4, 20]: 0 | Plant response rating, Cocklebur [4, 25]: 0 | Plant response rating, Cocklebur [4, 28]: 0 | Plant response rating, Cocklebur [4, 29]: 0 | Cocklebur plant response rating ([4]; Preemergence, scale 0 to 100): 0 | Nutsedge, Yellow plant response rating [5, 17]: 0 | Plant response rating, Nutsedge, Yellow [5, 18]: 0 | Plant response rating, Nutsedge, Yellow [5, 19]: 0 | Plant response rating, Nutsedge, Yellow [5, 20]: 0 | Plant response rating, Nutsedge, Yellow [5, 25]: 0 | Plant response rating, Nutsedge, Yellow [5, 21]: 0 | Plant response rating, Nutsedge, Yellow [5, 29]: 0 | Nutsedge, Yellow plant response rating [5, 23]: 0 | Ragweed plant response rating [6, 17]: 0 | Plant response rating, Ragweed [6, 18]: 0 | Plant response rating, Ragweed [6, 19]: 0 | Plant response rating, Ragweed [6, 20]: 0 | Plant response rating, Ragweed [6, 25]: 0 | Plant response rating, Ragweed [6, 21]: 0 | Plant response rating, Ragweed [6, 29]: 0 | Ragweed plant response rating [6, 23]: 0 | Ryegrass, Italian plant response rating [7, 17]: 40 | Plant response rating, Ryegrass, Italian [7, 18]: 90 | Plant response rating, Ryegrass, Italian [7, 19]: 100 | Plant response rating, Ryegrass, Italian [7, 20]: 100 | Plant response rating, Ryegrass, Italian [7, 25]: 85 | Plant response rating, Ryegrass, Italian [7, 21]: 100 | Plant response rating, Ryegrass, Italian [7, 29]: 100 | Ryegrass, Italian plant response rating [7, 23]: 85 | Soybean plant response rating [8, 17]: 0 | Plant response rating, Soybean [8, 18]: 0 | Plant response rating, Soybean [8, 19]: 0 | Plant response rating, Soybean [8, 20]: 0 | Plant response rating, Soybean [8, 25]: 0 | Plant response rating, Soybean [8, 21]: 0 | Plant response rating, Soybean [8, 29]: 0 | Soybean plant response rating [8, 23]: 0 | Plant response rating, Russian Thistle [9, 30]: 0 | Plant response rating, Russian Thistle [9, 26]: 0 | Plant response rating, Russian Thistle ([9]; 62 g ai/ha, scale 0 to 100): 0 | Russian Thistle plant response rating ([9]; 8 g ai/ha, scale 0 to 100): 0 | Cupgrass, Woolly plant response rating [10, 17]: 75 | Plant response rating, Cupgrass, Woolly [10, 18]: 85 | Plant response rating, Cupgrass, Woolly [10, 19]: 100 | Plant response rating, Cupgrass, Woolly [10, 20]: 100 | Plant response rating, Cupgrass, Woolly [10, 25]: 0 | Plant response rating, Cupgrass, Woolly [10, 28]: 0 | Plant response rating, Cupgrass, Woolly [10, 29]: 0 | Cupgrass, Woolly plant response rating [10, 23]: 0 | Plant response rating, Nightshade, E. B. [11, 30]: 0 | Plant response rating, Nightshade, E. B. [11, 26]: 0 | Plant response rating, Nightshade, E. B. ([11]; 62 g ai/ha, scale 0 to 100): 20 | Nightshade, E. B. plant response rating ([11]; 8 g ai/ha, scale 0 to 100): 0 | Kochia plant response rating [12, 17]: 0 | Plant response rating, Kochia [12, 18]: 0 | Plant response rating, Kochia [12, 19]: 0 | Plant response rating, Kochia [12, 20]: 0 | Plant response rating, Kochia [12, 25]: 0 | Plant response rating, Kochia [12, 28]: 0 | Plant response rating, Kochia [12, 29]: 0 | Kochia plant response rating [12, 23]: 0
